Measurements published in PubChem BioAssay (NCI).
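1) Cells in 96-well plates. 2) Compound, 48 h, 5 concentrations. 3) Linear interpolation between surrounding doses. 4) Unreached endpoint = highest concentration. TGI: concentration producing complete growth inhibition.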

What was measured:
Assay in all cases: NCI anticancer screen, dose series, 48 h
SNB-19 CNS = tested on: SNB-19 CNS
SW-620 colon = tested on: SW-620 colon
DU-145 prostate = tested on: DU-145 prostate
U251 CNS = tested on: U251 CNS
SNB-75 CNS = tested on: SNB-75 CNS
EKVX NSCLC = tested on: EKVX NSCLC
RPMI-8226 leukemia = tested on: RPMI-8226 leukemia
SR leukemia = tested on: SR leukemia
TK-10 renal = tested on: TK-10 renal
SK-MEL-2 melanoma = tested on: SK-MEL-2 melanoma
HL-60(TB) leukemia = tested on: HL-60(TB) leukemia
SF-268 CNS = tested on: SF-268 CNS
MOLT-4 leukemia = tested on: MOLT-4 leukemia

Row | Compound | TGI (SNB-19 CNS) | TGI (SW-620 colon) | TGI (DU-145 prostate) | TGI (U251 CNS) | TGI (SNB-75 CNS) | TGI (EKVX NSCLC) | TGI (RPMI-8226 leukemia) | TGI (SR leukemia) | TGI (TK-10 renal) | TGI (SK-MEL-2 melanoma) | TGI (HL-60(TB) leukemia) | TGI (SF-268 CNS) | TGI (MOLT-4 leukemia)
1 | Cn1c2ccccc2c2c(-c3ccccc3)[n+]3ccccc3nc21 | > 100 µM | 86.9 µM | > 100 µM | 64.7 µM | > 100 µM | > 100 µM | 40.8 µM | 60.3 µM | 85 µM | 40.4 µM | 66.6 µM | 38.8 µM | > 100 µM
2 | O=C(O)CNC(=O)CO/N=C1/C(c2c(O)[nH]c3ccccc23)=Nc2ccccc21 | > 100 µM | > 100 µM | > 100 µM | > 100 µM | > 100 µM | > 100 µM | > 100 µM | > 100 µM | > 100 µM | > 100 µM | > 100 µM | > 100 µM | > 100 µM
3 | CN(C)c1ccc(/C=C2/SC(=S)NC2=O)cc1 | > 100 µM | > 100 µM | > 100 µM | > 100 µM | > 100 µM | > 100 µM | > 100 µM | > 100 µM | 53 µM | > 100 µM | > 100 µM | > 100 µM | > 100 µM
4 | C=CCc1cc(-c2cc(CC=C)c(O)c(CN(CCCl)CCCl)c2)cc(CN(CCCl)CCCl)c1O | 51.8 µM | 27.7 µM | 30.8 µM | 24.8 µM | 58.6 µM | 22.5 µM | > 100 µM | > 100 µM | 38.8 µM | 40.6 µM | > 100 µM | 47.8 µM | > 100 µM
5 | COc1cc(O)cc(/C=C/c2ccc(O)cc2)c1 | > 100 µM | > 100 µM | > 100 µM | 81.4 µM | > 100 µM | 94.1 µM | 25.7 µM | > 100 µM | 93.6 µM | > 100 µM | > 100 µM | > 100 µM | > 100 µM
6 | O=C1/C(=C/C=C/c2ccccc2)N=C(c2ccccc2)N1C1Nc2cc3c(cc2S1)NC(N1C(=O)/C(=C/C=C/c2ccccc2)N=C1c1ccccc1)S3 (configuration not stated) | – | > 100 µM | > 100 µM | > 100 µM | – | > 100 µM | 57 µM | 27.8 µM | > 100 µM | > 100 µM | > 100 µM | > 100 µM | 0.302 µM
7 | CN1C(=O)c2ccccc2NC(=O)c2cnn(C)c21 | > 100 µM | > 100 µM | – | > 100 µM | > 100 µM | > 100 µM | > 100 µM | – | – | > 100 µM | > 100 µM | > 100 µM | > 100 µM
8 | C[n+]1c2ccccc2c(CNc2ccc(S(=O)(=O)N=C(N)N)cc2)c2ccccc21 | 31.6 µM | 56.8 µM | – | – | 39.9 µM | 64.1 µM | 23.5 µM | – | > 100 µM | 59.5 µM | 7.47 µM | > 100 µM | 1.7 µM
9 | CC1=NN(c2cccc(Cl)c2)C2(SCC(=O)N2c2nc3ccccc3s2)/C1=C\c1ccc(Cl)cc1 (configuration not stated) | – | 27.9 µM | 39.2 µM | 28.2 µM | – | > 100 µM | 39.5 µM | 15.9 µM | > 100 µM | 35.7 µM | 24.3 µM | 46.2 µM | 20.8 µM
10 | O=C(O)CCCCCCC[C@@H]1S[C@H]1CCCCCCO | > 100 µM | > 100 µM | – | > 100 µM | > 100 µM | > 100 µM | > 100 µM | – | – | > 100 µM | > 100 µM | > 100 µM | > 100 µM
